Assay results taken from US20100151021A1 (priority 2008, published 2010).

How the values were obtained:
[1] = tested on: psychosis associated with PD; settings: initial open-label studies; cited from earlier work
[2] = Solubility of Melperone HCl in media; format: physicochemical; settings: for solubility: phosphate buffer, aqueous buffer
[3] = cited from earlier work
[4] = clinical; cited from earlier work
[5] = tested on: psychosis in patients with PD; settings: cited from earlier work

With OCCOCCN1CCN(C2=Nc3ccccc3Sc3ccccc32)CC1 [quetiapine] as the molecule, how does the “efficacy in psychosis associated with PD” value [1] read?
Its value is “has shown efficacy”.

And the “patients with worsening of motor symptoms of PD” value [1]?
Its value is “up to 30%”.

With CC1CCN(CCCC(=O)c2ccc(F)cc2)CC1.Cl [Melperone HCl, 1-(4-fluorophenyl)-4-(4-methyl-1-piperidinyl)-1-butanone hydrochloride] as the molecule, how does the solubility ([2]; pH 7.0 (phosphate)) read?
The solubility was over 100 mg/mL.

And the solubility ([2]; pH 7.8 (phosphate))?
Its solubility is 25.6 mg/mL.

Which results are given for CC1CCN(CCCC(=O)c2ccc(F)cc2)CC1 [melperone]?
mean Tmax ([3]; oral tablet administration): 1.5 to 3.0 h; absolute oral bioavailability ([3]; oral): 50-70%; Solubility in words ([2]; aqueous buffers at acidic to neutral pH conditions): freely soluble; Solubility in words ([2]; higher pH values (above pH=7.5)): poorly soluble; incidence of extrapyramidal side effect (EPS) or tardive dyskinesia [4]: low incidence; time over which efficacy was maintained ([5]; mean daily dose of 37.5 mg): 2 years; efficacy in the treatment of psychosis ([5]; patients with PD): has shown efficacy; onset of efficacy ([5]; patients with PD): within a week
